Where two headings read alike, the source gives them in different places.
How the values were obtained:
[1] = system: pigweed; assay: Test C pre-/postemergence herbicide test; assay type: in vivo, Amaranthus retroflexus; details: for pest or weed control at 62 g/ha: scale 0 to 100; for Pigweed plant response rating: Preemergence, scale 0 to 100, 0 no effect, 100 complete control
Summary of the method: (§1)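 Visual ratings on a 0–100 scale (100 = complete control) made versus untreated controls after 12 to 14 greenhouse days. Test chemicals, formulated in surfactant-containing non-phytotoxic solvent, applied preemergence to planted seeds or postemergence to 1- to 4-leaf plants (2 to 18 cm).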

[2] = system: large crabgrass; assay: Test C pre-/postemergence herbicide test; assay type: in vivo, Digitaria sanguinalis; details: for pest or weed control at 62 g/ha: scale 0 to 100; for Crabgrass, Large plant response rating: Preemergence, scale 0 to 100, 0 no effect, 100 complete control
Summary of the method: as §1

[3] = system: goosegrass; assay: Test C pre-/postemergence herbicide test; assay type: in vivo, Eleusine indica; details: for pest or weed control at 62 g/ha: scale 0 to 100; for Goosegrass plant response rating: Preemergence, scale 0 to 100, 0 no effect, 100 complete control
Summary of the method: as §1

[4] = system: velvetleaf; assay: Test C pre-/postemergence herbicide test; assay type: in vivo, Abutilon theophrasti; details: for pest or weed control at 62 g/ha: scale 0 to 100; for Velvetleaf plant response rating: Preemergence, scale 0 to 100, 0 no effect, 100 complete control
Summary of the method: as §1

[5] = system: common (oilseed) sunflower; assay: Test C pre-/postemergence herbicide test; assay type: in vivo, Helianthus annuus; details: for pest or weed control at 62 g/ha: scale 0 to 100; for Sunflower plant response rating: Preemergence, scale 0 to 100, 0 no effect, 100 complete control
Summary of the method: as §1

[6] = system: rice; assay: Test B pre-/postemergence herbicide test; assay type: in vivo, Oryza sativa; details: for plant injury at 500 g/ha / plant injury at 125 g/ha: Oryza sativa, pre-emergence, 336 h
Summary of the method: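 Plants compared with untreated controls 13–15 days post-treatment and given a visual 0–100 injury score. Applications: preemergence to seeds; postemergence at 1- to 4-leaf (2–18 cm); paddy species flooded, 2-leaf stage. Vehicle non-phytotoxic, surfactant included.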

[7] = Amaranthus retroflexus, pre-emergence, 62 g ai/ha, preemergence, read-out: Plant response rating, Pigweed
[8] = Amaranthus retroflexus, pre-emergence, 125 g ai/ha, scale 0 (no effect) to 100 (complete control), visual, 12 to 14 days, read-out: Plant response rating, Pigweed
[9] = Digitaria sanguinalis, pre-emergence, 312 h, 62 g ai/ha, preemergence, read-out: Plant response rating, Crabgrass, Large
[10] = Digitaria sanguinalis, pre-emergence, 312 h, 125 g ai/ha, scale 0 (no effect) to 100 (complete control), visual, 12 to 14 days, read-out: Plant response rating, Crabgrass, Large
[11] = Eleusine indica, pre-emergence, 312 h, 62 g ai/ha, preemergence, read-out: Plant response rating, Goosegrass
[12] = Eleusine indica, pre-emergence, 312 h, 125 g ai/ha, scale 0 (no effect) to 100 (complete control), visual, 12 to 14 days, read-out: Plant response rating, Goosegrass
[13] = Abutilon theophrasti, pre-emergence, 62 g ai/ha, preemergence, read-out: Plant response rating, Velvetleaf
[14] = Helianthus annuus, pre-emergence, 62 g ai/ha, preemergence, read-out: Plant response rating, Sunflower
[15] = 125 g ai/ha, scale 0 (no effect) to 100 (complete control), visual, 12 to 14 days, preemergence
[16] = 250 g ai/ha, scale 0 to 100 (0 no effect, 100 complete control), visual, 12 to 14 days, preemergence

CCn1nc(C(C)(C)C)cc1C(=O)Nc1cc(C(=O)N(C)C)ccn1 [Compound 156, 2-[[[3-(1,1-dimethylethyl)-1-ethyl-1H-pyrazol-5-yl]carbonyl]amino]-N,N-dimethyl-4-pyridinecarboxamide] was tested, and the pest or weed control at 62 g/ha [1, 7] was 95%, the pest or weed control at 125 g/ha [1, 8] was 98% and the “Pigweed plant response rating” value ([1]; 500 g ai/ha) was 100. The pest or weed control at 62 g/ha [2, 9] was 60%, the pest or weed control at 125 g/ha [2, 10] was 85% and the pest or weed control at 250 g/ha ([2]; Digitaria sanguinalis, pre-emergence, 312 h, 250 g ai/ha, scale 0 to 100 (0 no effect, 100 complete control), visual, 12 to 14 days, read-out: Plant response rating, Crabgrass, Large) was 90%. For the same compound, the “Crabgrass, Large plant response rating” value ([2]; 500 g ai/ha) was 100, the pest or weed control at 62 g/ha [3, 11] was 83% and the pest or weed control at 125 g/ha [3, 12] was 90%. The “Goosegrass plant response rating” value ([3]; 500 g ai/ha) was 95, the pest or weed control at 62 g/ha [4, 13] was 43% and the pest or weed control at 125 g/ha ([4]; Abutilon theophrasti, pre-emergence, 125 g ai/ha, scale 0 (no effect) to 100 (complete control), visual, 12 to 14 days, read-out: Plant response rating, Velvetleaf) was 63%. The “Velvetleaf plant response rating” value ([4]; 500 g ai/ha) was 100, the pest or weed control at 62 g/ha [5, 14] was 25% and the pest or weed control at 125 g/ha ([5]; Helianthus annuus, pre-emergence, 125 g ai/ha, scale 0 (no effect) to 100 (complete control), visual, 12 to 14 days, read-out: Plant response rating, Sunflower) was 45%. The “Sunflower plant response rating” value ([5]; 500 g ai/ha) was 85, the plant injury at 500 g/ha ([6]; 500 g ai/ha, visual rating 0-100, 0 no effect, 100 complete control, read-out: Plant response rating, Rice) was 100% and the plant injury at 125 g/ha ([6]; preemergence, 125 g ai/ha, 0 to 100 scale, 0 is no effect, 100 is complete control, read-out: Plant response rating, Rice) was 90%.
For CCNC(=O)c1cccc(NC(=O)c2nn(C(C)(C)C)cc2Br)c1 [Compound 221, 4-bromo-1-(1,1-dimethylethyl)-N-[3-[(ethylamino)carbonyl]phenyl]-1H-pyrazole-3-carboxamide], the pest or weed control at 62 g/ha [1, 7] was 90%, the pest or weed control at 125 g/ha [1, 8] was 100% and the pest or weed control at 250 g/ha ([1]; Amaranthus retroflexus, pre-emergence, 250 g ai/ha, scale 0-100, read-out: Plant response rating, Pigweed) was 100%. For the same compound, the pest or weed control at 500 g/ha ([1]; Amaranthus retroflexus, pre-emergence, 500 g ai/ha, scale 0 to 100 (0 no effect, 100 complete control), visual, 12 to 14 days, read-out: Plant response rating, Pigweed) was 100%, the pest or weed control at 62 g/ha [2, 9] was 0% and the pest or weed control at 125 g/ha [2, 10] was 100%. The pest or weed control at 250 g/ha ([2]; Digitaria sanguinalis, pre-emergence, 312 h, 250 g ai/ha, scale 0-100, read-out: Plant response rating, Crabgrass, Large) was 100%, the pest or weed control at 500 g/ha ([2]; Digitaria sanguinalis, pre-emergence, 312 h, 500 g ai/ha, scale 0 to 100 (0 no effect, 100 complete control), visual, 12 to 14 days, read-out: Plant response rating, Crabgrass, Large) was 100% and the pest or weed control at 62 g/ha [3, 11] was 0%. It also gave a pest or weed control at 125 g/ha [3, 12] of 0%, a pest or weed control at 250 g/ha ([3]; Eleusine indica, pre-emergence, 312 h, 250 g ai/ha, scale 0-100, read-out: Plant response rating, Goosegrass) of 0% and a pest or weed control at 500 g/ha ([3]; Eleusine indica, pre-emergence, 312 h, 500 g ai/ha, scale 0 to 100 (0 no effect, 100 complete control), visual, 12 to 14 days, read-out: Plant response rating, Goosegrass) of 50%. It also gave a pest or weed control at 62 g/ha [4, 13] of 0%, a pest or weed control at 250 g/ha ([4]; Abutilon theophrasti, pre-emergence, 250 g ai/ha, scale 0-100, read-out: Plant response rating, Velvetleaf) of 60% and a pest or weed control at 500 g/ha ([4]; Abutilon theophrasti, pre-emergence, 500 g ai/ha, scale 0 to 100 (0 no effect, 100 complete control), visual, 12 to 14 days, read-out: Plant response rating, Velvetleaf) of 80%. It also gave a pest or weed control at 62 g/ha [5, 14] of 0%, a pest or weed control at 250 g/ha ([5]; Helianthus annuus, pre-emergence, 250 g ai/ha, scale 0-100, read-out: Plant response rating, Sunflower) of 0% and a pest or weed control at 500 g/ha ([5]; Helianthus annuus, pre-emergence, 500 g ai/ha, scale 0 to 100 (0 no effect, 100 complete control), visual, 12 to 14 days, read-out: Plant response rating, Sunflower) of 30%. For the same compound, the plant injury at 125 g/ha ([6]; 125 g ai/ha, 0 = no effect, 100 = complete control, read-out: Rice plant response rating (0 to 100 scale)) was 0% and the plant injury at 500 g/ha ([6]; 500 g ai/ha, visual rating, 0 = no effect, 100 = complete control, read-out: Plant response rating, Rice) was 20%.
In the case of C=CCn1nc(C(C)(C)C)cc1C(=O)Nc1cccc(C(=O)NCC)c1 [Compound 56], the “Plant response rating (0 = no effect, 100 = complete control), Pigweed” value ([1]; 62 g ai/ha, preemergence) is reported as 100, the “Plant response rating, Pigweed” value [1, 15] is reported as 100 and the “Plant response rating, Pigweed” value [1, 16] is reported as 100. The “Pigweed plant response rating” value ([1]; 500 g ai/ha) was 100, the “Plant response rating (0 = no effect, 100 = complete control), Crabgrass, Large” value ([2]; 62 g ai/ha, preemergence) was 95 and the “Plant response rating, Crabgrass, Large” value [2, 15] was 100. The “Plant response rating, Crabgrass, Large” value [2, 16] was 100, the “Crabgrass, Large plant response rating” value ([2]; 500 g ai/ha) was 100 and the “Plant response rating (0 = no effect, 100 = complete control), Goosegrass” value ([3]; 62 g ai/ha, preemergence) was 60. The “Plant response rating, Goosegrass” value [3, 15] was 85, the “Plant response rating, Goosegrass” value [3, 16] was 90 and the “Goosegrass plant response rating” value ([3]; 500 g ai/ha) was 95. For the same compound, the “Plant response rating (0 = no effect, 100 = complete control), Velvetleaf” value ([4]; 62 g ai/ha, preemergence) was 20, the “Plant response rating, Velvetleaf” value [4, 15] was 35 and the “Plant response rating, Velvetleaf” value [4, 16] was 50. For the same compound, the “Velvetleaf plant response rating” value ([4]; 500 g ai/ha) was 100, the “Plant response rating (0 = no effect, 100 = complete control), Sunflower” value ([5]; 62 g ai/ha, preemergence) was 0 and the “Plant response rating, Sunflower” value [5, 15] was 0. For the same compound, the “Plant response rating, Sunflower” value [5, 16] was 0, the “Sunflower plant response rating” value ([5]; 500 g ai/ha) was 0 and the “Rice plant response rating” value ([6]; Preemergence, 500 g ai/ha, scale 0 to 100) was 70. The “Plant response rating, Rice” value ([6]; preemergence, 125 g ai/ha, 0 to 100 scale, 0 is no effect, 100 is complete control) was 40.
